The values below come from ChEMBL document CHEMBL1201862, “PubChem BioAssay data set” (2004).

Test systems include RXF 631; XF498; DLD-1; DMS-114; SNB-78; M19-MEL; HOP-18; DMS-273.
Experiment in all cases: inhibition of tumour cell growth, NCI panel, 48 h

Each structure is given as a SMILES string.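 A five-concentration, 48-hour dose response in 96-well plates underlies each endpoint, interpolated linearly between surrounding concentrations. GI50 is the concentration that inhibits growth by half.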 Activity calls are given as the source filed them. Cut-off read from the data, not from the text of the source: active = GI50 up to about 1.1 µM and inactive = higher.

As to `C#Cc1c(C)c(/C=C/C(C)=C/C=C/C(C)=C/C(=O)OC)n(C)c1C`, the GI50 with RXF 631, with XF498, in the assay with DLD-1, with DMS-114, with SNB-78 and with M19-MEL was > 100 µM (inactive) each time.

`N#CCCc1nc2ccc(Br)cc2c(=O)n1-c1ccc(O)c([N+](=O)[O-])c1`: the GI50 in the assay on RXF 631 was 17.9 µM (inactive); with XF498, 17.1 µM (inactive); with DLD-1, 16.9 µM (inactive); in the assay on SNB-78, 24.2 µM (inactive); in the assay on M19-MEL, 19.4 µM (inactive).

Regarding `CC1=C[C@@H]2Cc3occc3C(C)(C)[C@@H]2CC1`, the GI50 in the assay with RXF 631 was 20.4 µM (inactive); in the assay with HOP-18, 23.6 µM (inactive); in the assay on XF498 it was 15.3 µM (inactive); with DMS-273 it was 13.6 µM (inactive); in the assay with DLD-1, 17.7 µM (inactive); with DMS-114 it was 20.2 µM (inactive). The GI50 with SNB-78 is 27.7 µM (inactive); in the assay with M19-MEL, 15.6 µM (inactive).

For the compound `CCOC(=O)NC(=O)c1cn(CCSCCOC(=O)NCCCCCCNC(=O)OCCSCCn2cc(C(=O)NC(=O)OCC)c(=O)n(C)c2=O)c(=O)n(C)c1=O`, the GI50 is 21 µM (inactive) in the assay on RXF 631; 0.237 µM (active) in the assay with HOP-18; 18.1 µM (inactive) in the assay on XF498; 72.8 µM (inactive) with DLD-1; > 100 µM (inactive) with SNB-78; 21.4 µM (inactive) in the assay on M19-MEL.

As for `CCOC(=O)C1=C(C)N(NC(N)=O)C(C)(O)C12CCOC2=O` (centres undefined), the GI50 with RXF 631 is > 100 µM (inactive); in the assay with XF498, > 100 µM (inactive); with DMS-273 it was > 100 µM (inactive); with DLD-1, > 100 µM (inactive); in the assay on SNB-78, 1.97 µM (inactive); in the assay with M19-MEL, > 100 µM (inactive).

Turning to `Cc1cc(O)c2c(c1)C(=O)c1cc(O)cc(O)c1C2=O` [EMODIN], the GI50 is 39.3 µM (inactive) with RXF 631; 3.94 µM (inactive) in the assay on HOP-18; 26.1 µM (inactive) in the assay on XF498; 19.8 µM (inactive) in the assay with DMS-273; 23.3 µM (inactive) with DLD-1; 41.2 µM (inactive) with DMS-114. Also, in the assay with SNB-78, the GI50 is 49.2 µM (inactive).

With `O=C(CC(=O)n1nc(-c2ccccc2)c(/N=N/c2ccc(Cl)cc2)c1-c1ccccc1)Nc1ccc(Cl)cc1`, the GI50 was > 100 µM (inactive) in the assay on RXF 631; > 100 µM (inactive) in the assay on HOP-18; > 55.1 µM (inactive) in the assay with DMS-273; 18.6 µM (inactive) with DLD-1; > 40.6 µM (inactive) in the assay on DMS-114; > 100 µM (inactive) in the assay with SNB-78. Besides, in the assay with M19-MEL, the GI50 is > 47.8 µM (inactive).

Regarding `N#C/N=C(/N)NCO`, the GI50 was > 100 µM (inactive) in the assay with RXF 631; > 100 µM (inactive) in the assay with HOP-18; > 60.8 µM (inactive) in the assay on XF498; > 90.4 µM (inactive) in the assay with DMS-273; > 54 µM (inactive) in the assay on DLD-1; > 43 µM (inactive) in the assay with DMS-114. Moreover, the GI50 in the assay with SNB-78 was > 100 µM (inactive); in the assay on M19-MEL it was > 60.5 µM (inactive).

As for `O=c1nc(-c2ccccc2)scc1-c1ccccc1`, the GI50 in the assay on RXF 631, with HOP-18, in the assay on XF498, with DLD-1, in the assay on DMS-114 and in the assay on M19-MEL was > 100 µM (inactive) in each case.

On to `Cc1nc2c(o1)/C(=N\c1ccccc1)c1ccccc1/C2=N/c1ccccc1`, for which the GI50 in the assay on RXF 631 is 81.7 µM (inactive); with HOP-18, > 100 µM (inactive); with XF498 it was > 100 µM (inactive); in the assay with DMS-273, 63.5 µM (inactive); in the assay with DLD-1, 53.6 µM (inactive); in the assay on DMS-114, 39.2 µM (inactive). Besides, the values for the GI50 with SNB-78 and in the assay on M19-MEL were 70.1 µM (inactive) and 55.1 µM (inactive), respectively.

Consider `Cc1cccc(C(C)(C)C)c1NC(=O)CCc1nnc(S)[nH]1`, for which the GI50 in the assay with RXF 631, in the assay on XF498, in the assay with DMS-273, in the assay with DLD-1, in the assay on DMS-114 and in the assay with SNB-78 was > 100 µM (inactive) throughout. In the assay on M19-MEL, the GI50 is > 100 µM (inactive).
